Reference: ChEMBL document CHEMBL2384999, “Discovery of a potent, dual serotonin and norepinephrine reuptake inhibitor” (ACS Med Chem Lett, 2013)
The source made the active and inactive calls. No cut-off for these calls is given here.

Legend:
[1] = target: Sodium-dependent dopamine transporter (Homo sapiens, UniProt Q01959); assay: biochemical
Description: Displacement of [3H]WIN35428 from human DAT transfected in HEK293 cells after 3 hrs by Wallac counting analysis

[2] = target: T1, Sodium-dependent serotonin transporter (Homo sapiens, UniProt P31645); assay: biochemical; assay type: cell-based, HEK293
Target sequence in this assay (P31645 whole entry): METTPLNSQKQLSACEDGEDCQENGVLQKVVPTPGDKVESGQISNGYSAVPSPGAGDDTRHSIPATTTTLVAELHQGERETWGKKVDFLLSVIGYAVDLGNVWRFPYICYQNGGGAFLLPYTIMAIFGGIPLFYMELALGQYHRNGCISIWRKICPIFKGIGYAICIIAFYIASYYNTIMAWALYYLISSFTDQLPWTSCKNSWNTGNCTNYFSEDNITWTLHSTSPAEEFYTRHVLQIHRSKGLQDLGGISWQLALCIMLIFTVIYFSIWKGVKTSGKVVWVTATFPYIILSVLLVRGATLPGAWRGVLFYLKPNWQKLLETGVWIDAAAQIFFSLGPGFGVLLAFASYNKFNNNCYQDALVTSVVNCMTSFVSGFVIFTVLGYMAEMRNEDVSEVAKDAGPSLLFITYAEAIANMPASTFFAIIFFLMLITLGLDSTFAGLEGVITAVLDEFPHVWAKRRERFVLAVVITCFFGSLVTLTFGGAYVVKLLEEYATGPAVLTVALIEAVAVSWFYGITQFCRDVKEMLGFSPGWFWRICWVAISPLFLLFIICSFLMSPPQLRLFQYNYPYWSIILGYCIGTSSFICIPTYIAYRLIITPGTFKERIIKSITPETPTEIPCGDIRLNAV
Description: Displacement of [3H]citalopram from human SERT transfected in HEK293 cells after 3 hrs by Wallac counting analysis

[3] = target: Sodium-dependent serotonin transporter (Rattus norvegicus, UniProt P31652)
Sodium-dependent serotonin transporter (Rattus norvegicus, UniProt P31652), sequence (P31652 whole entry): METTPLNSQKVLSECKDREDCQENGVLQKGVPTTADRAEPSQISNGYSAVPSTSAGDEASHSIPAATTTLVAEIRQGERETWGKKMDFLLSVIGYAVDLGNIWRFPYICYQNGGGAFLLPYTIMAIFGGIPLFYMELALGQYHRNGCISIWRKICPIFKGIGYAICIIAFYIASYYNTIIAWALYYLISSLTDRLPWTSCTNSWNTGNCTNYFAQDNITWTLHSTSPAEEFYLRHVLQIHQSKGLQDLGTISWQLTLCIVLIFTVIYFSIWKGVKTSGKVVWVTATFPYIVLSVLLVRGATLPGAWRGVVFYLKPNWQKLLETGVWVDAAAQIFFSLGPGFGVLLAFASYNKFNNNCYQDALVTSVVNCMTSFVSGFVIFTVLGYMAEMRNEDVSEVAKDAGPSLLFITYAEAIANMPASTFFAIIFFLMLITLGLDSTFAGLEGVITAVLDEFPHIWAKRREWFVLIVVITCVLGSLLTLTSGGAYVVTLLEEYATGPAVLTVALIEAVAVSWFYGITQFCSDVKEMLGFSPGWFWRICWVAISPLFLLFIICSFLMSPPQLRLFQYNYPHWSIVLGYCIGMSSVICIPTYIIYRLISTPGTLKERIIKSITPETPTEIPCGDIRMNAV
Description: Displacement of [3H]-citalopram from Sprague-Dawley rat brain SERT after 1 hr

[4] = AUC (0 to infinity) in rat at 1 mg/kg, po; assay type: ADME, organism-based; design: time infinity, dose 1 mg/kg, route oral; conditions: plasma
[5] = Half life in rat at 1 mg/kg, iv; assay type: ADME, organism-based; design: dose 1 mg/kg, route intravenous; conditions: in vivo
Cytochrome P450 2D6 = Cytochrome P450 2D6 (Homo sapiens, UniProt P10635); assay: Inhibition of CYP2D6 (unknown origin); assay type: ADME
Cytochrome P450 2D6, sequence (P10635 whole entry): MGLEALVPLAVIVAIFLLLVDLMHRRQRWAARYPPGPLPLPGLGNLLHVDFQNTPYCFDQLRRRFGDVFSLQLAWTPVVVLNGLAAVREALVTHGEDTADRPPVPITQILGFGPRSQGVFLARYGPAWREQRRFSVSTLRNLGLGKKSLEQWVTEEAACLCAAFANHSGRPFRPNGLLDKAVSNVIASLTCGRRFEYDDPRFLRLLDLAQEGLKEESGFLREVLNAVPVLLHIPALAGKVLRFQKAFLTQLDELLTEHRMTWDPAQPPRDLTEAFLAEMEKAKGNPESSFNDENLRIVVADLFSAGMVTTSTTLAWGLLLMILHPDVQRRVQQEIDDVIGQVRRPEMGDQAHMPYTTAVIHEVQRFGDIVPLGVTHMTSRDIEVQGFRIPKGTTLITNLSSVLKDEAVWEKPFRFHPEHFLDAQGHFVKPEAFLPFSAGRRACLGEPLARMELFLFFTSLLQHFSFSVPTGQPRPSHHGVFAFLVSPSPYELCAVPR

[6] = Clearance in rat at 1 mg/kg, iv; assay type: ADME, organism-based; design: dose 1 mg/kg, route intravenous; conditions: in vivo
CYP2C9 = CYP2C9 (Homo sapiens, UniProt P11712); assay: Inhibition of CYP2C9 (unknown origin) at 10 uM; assay type: ADME
CYP2C9, sequence (P11712 whole entry): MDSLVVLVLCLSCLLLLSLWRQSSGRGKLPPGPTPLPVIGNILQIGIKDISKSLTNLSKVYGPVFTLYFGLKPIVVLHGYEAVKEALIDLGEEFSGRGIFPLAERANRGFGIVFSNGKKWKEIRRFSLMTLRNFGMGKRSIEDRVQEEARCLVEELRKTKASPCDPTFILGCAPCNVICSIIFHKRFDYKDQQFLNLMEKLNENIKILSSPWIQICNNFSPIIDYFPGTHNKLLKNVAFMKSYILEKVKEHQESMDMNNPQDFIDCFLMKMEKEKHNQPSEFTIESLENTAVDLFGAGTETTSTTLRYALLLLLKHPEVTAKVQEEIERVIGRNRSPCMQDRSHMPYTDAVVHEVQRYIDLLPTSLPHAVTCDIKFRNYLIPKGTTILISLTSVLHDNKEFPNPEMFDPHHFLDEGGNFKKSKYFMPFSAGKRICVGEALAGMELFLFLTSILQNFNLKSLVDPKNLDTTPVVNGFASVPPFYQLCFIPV

Rattus norvegicus [7] = assay: Neurotoxicity in Sprague-Dawley rat at 100 mg/kg, po by rotorod test; assay type: toxicity, organism-based; design: dose 100 mg/kg, route oral; conditions: in vivo
[8] = Cmax in dog at 1 mg/kg, po; assay type: ADME, organism-based, Canis lupus familiaris; design: dose 1 mg/kg, route oral; conditions: in vivo
[9] = Oral bioavailability in dog at 1 mg/kg; assay type: ADME, organism-based, Canis lupus familiaris; conditions: in vivo
[10] = Half life in dog at 1 mg/kg, iv; assay type: ADME, organism-based, Canis lupus familiaris; design: dose 1 mg/kg, route intravenous; conditions: in vivo
Plasma = assay: Drug uptake in Sprague-Dawley rat plasma at 10 mg/kg, po; assay type: ADME, organism-based; design: dose 10 mg/kg, route oral; conditions: in vivo
[11] = Tmax in rat at 1 mg/kg, po; assay type: ADME, organism-based; design: dose 1 mg/kg, route oral; conditions: in vivo
[12] = Tmax in dog at 1 mg/kg, po; assay type: ADME, organism-based, Canis lupus familiaris; design: dose 1 mg/kg, route oral; conditions: in vivo
Rattus norvegicus [13] = species: Rattus norvegicus; assay: animal or person; conditions: po
[14] = Volume of distribution at steady state in rat at 1 mg/kg, iv; assay type: ADME, organism-based; design: dose 1 mg/kg, route intravenous; conditions: in vivo, read-out: Vdss
[15] = Metabolic stability in rat liver microsomes after 30 mins by LC-ESI/MS analysis; assay type: ADME, Microsome; conditions: read-out: Stability
[16] = AUC (0 to infinity) in dog at 1 mg/kg, iv; assay type: ADME, organism-based, Canis lupus familiaris; design: dose 1 mg/kg, route intravenous, time infinity; conditions: plasma
[17] = Oral bioavailability in rat at 1 mg/kg; assay type: ADME, organism-based; conditions: in vivo
[18] = AUC (0 to infinity) in rat at 1 mg/kg, iv; assay type: ADME, organism-based; design: time infinity, dose 1 mg/kg, route intravenous; conditions: plasma
[19] = Serum protein binding in human; assay type: ADME, cell-free; conditions: read-out: PB (converted)
CYP3A4 = CYP3A4 (Homo sapiens, UniProt P08684); assay: Inhibition of CYP3A4 (unknown origin) at 10 uM; assay type: ADME
CYP3A4, sequence (P08684 whole entry): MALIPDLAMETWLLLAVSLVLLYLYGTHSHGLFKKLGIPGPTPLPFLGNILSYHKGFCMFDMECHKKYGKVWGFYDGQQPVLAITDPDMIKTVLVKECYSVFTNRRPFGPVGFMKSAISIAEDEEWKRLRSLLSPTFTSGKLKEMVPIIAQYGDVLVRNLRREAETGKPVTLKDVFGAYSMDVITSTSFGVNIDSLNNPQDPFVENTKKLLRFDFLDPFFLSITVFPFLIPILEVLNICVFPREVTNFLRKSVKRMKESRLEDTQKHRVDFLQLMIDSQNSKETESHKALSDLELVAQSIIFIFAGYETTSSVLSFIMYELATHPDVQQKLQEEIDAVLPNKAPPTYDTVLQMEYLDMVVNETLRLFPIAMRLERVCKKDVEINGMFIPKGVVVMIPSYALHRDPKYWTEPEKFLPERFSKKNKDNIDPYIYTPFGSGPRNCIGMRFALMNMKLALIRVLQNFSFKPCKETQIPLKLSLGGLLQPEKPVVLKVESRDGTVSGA

[20] = Metabolic stability in human liver microsomes after 30 mins by LC-ESI/MS analysis; assay type: ADME, Microsome; conditions: read-out: Stability
[21] = Volume of distribution at steady state in dog at 1 mg/kg, iv; assay type: ADME, organism-based, Canis lupus familiaris; design: dose 1 mg/kg, route intravenous; conditions: in vivo, read-out: Vdss
Cytochrome P450 1A2 = target: T2, Cytochrome P450 1A2 (Homo sapiens, UniProt P05177); assay: Inhibition of CYP1A2 (unknown origin); assay type: ADME
T2 sequence (P05177 whole entry): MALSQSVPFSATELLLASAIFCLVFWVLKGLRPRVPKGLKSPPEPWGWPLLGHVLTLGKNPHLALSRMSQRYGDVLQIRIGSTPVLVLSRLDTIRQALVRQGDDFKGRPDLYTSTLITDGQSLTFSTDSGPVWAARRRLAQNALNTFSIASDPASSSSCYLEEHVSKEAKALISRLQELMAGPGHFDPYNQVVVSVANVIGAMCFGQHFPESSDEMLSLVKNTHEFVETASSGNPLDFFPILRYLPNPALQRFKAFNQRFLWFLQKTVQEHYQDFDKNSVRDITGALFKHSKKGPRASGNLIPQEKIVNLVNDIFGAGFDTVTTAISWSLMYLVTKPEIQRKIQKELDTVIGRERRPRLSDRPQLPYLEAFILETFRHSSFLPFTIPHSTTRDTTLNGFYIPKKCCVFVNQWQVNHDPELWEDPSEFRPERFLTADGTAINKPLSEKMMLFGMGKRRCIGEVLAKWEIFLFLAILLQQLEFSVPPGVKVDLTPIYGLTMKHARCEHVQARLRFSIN

[22] = Metabolic stability in dog liver microsomes after 30 mins by LC-ESI/MS analysis; assay type: ADME, Canis lupus familiaris, Microsome; conditions: read-out: Stability
CYP2D6 = CYP2D6 (Homo sapiens, UniProt P10635); assay: Inhibition of CYP2D6 (unknown origin) at 10 uM; assay type: ADME
CYP2D6, sequence (P10635 whole entry): as the sequence (P10635 whole entry) above

Cytochrome P450 3A4 = Cytochrome P450 3A4 (Homo sapiens, UniProt P08684); assay: Inhibition of CYP3A4 (unknown origin); assay type: ADME
Cytochrome P450 3A4, sequence (P08684 whole entry): as the sequence (P08684 whole entry) above

[23] = Ratio of drug uptake in brain to plasma in Sprague-Dawley rat at 10 mg/kg, po; assay type: ADME, organism-based; design: dose 10 mg/kg, route oral; conditions: read-out: BPR
[24] = Cmax in rat at 1 mg/kg, po; assay type: ADME, organism-based; design: dose 1 mg/kg, route oral; conditions: in vivo
Cytochrome P450 2C9 = Cytochrome P450 2C9 (Homo sapiens, UniProt P11712); assay: Inhibition of CYP2C9 (unknown origin); assay type: ADME
Cytochrome P450 2C9, sequence (P11712 whole entry): as the sequence (P11712 whole entry) above

[25] = Clearance in dog at 1 mg/kg, iv; assay type: ADME, organism-based, Canis lupus familiaris; design: dose 1 mg/kg, route intravenous; conditions: in vivo
[26] = AUC (0 to infinity) in dog at 1 mg/kg, po; assay type: ADME, organism-based, Canis lupus familiaris; design: time infinity, dose 1 mg/kg, route oral; conditions: plasma
Brain = assay: Drug uptake in Sprague-Dawley rat brain at 10 mg/kg, po; assay type: ADME, organism-based; design: dose 10 mg/kg, route oral; conditions: in vivo, read-out: Drug uptake
Rattus norvegicus [27] = species: Rattus norvegicus; assay: animal or person; conditions: Sprague-Dawley, po, 2 h
Description: (§1) In vivo SERT receptor occupancy in po dosed Sprague-Dawley rat brain cortex after 2 hrs in presence of DASB

[28] = target: T1, Sodium-dependent serotonin transporter; assay: Inhibition of human SERT transfected in HEK293 cells assessed as inhibition of [3H]serotonin uptake incubated 30 mins prior to substrate addition measured after 1 minute 50 secs; assay type: cell-based
Target sequence in this assay (P31645 whole entry, looked up): as the sequence (P31645 whole entry) above

Rattus norvegicus [29] = conditions: Sprague-Dawley
Description: as §1

Rattus norvegicus [30] = test system: Rattus norvegicus

Sodium-dependent dopamine transporter, sequence (Q01959 whole entry): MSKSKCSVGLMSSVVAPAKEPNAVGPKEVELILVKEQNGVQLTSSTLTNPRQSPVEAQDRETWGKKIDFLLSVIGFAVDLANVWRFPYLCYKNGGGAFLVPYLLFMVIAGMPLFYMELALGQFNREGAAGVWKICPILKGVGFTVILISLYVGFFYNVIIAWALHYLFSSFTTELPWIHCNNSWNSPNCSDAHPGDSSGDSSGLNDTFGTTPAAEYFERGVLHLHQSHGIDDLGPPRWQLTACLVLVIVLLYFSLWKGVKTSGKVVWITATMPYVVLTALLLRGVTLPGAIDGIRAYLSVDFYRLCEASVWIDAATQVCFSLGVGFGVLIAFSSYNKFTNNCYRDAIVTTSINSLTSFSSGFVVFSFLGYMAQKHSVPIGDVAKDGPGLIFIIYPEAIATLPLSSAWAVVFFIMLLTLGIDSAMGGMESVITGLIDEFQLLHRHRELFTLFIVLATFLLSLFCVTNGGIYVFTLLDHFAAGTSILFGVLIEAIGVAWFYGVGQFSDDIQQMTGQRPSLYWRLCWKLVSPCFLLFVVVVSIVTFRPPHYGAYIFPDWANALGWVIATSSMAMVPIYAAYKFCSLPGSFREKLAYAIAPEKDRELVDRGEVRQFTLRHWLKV

COc1ccc(O[C@@H](CC(C)C)[C@H]2CCNC2)c(C)n1 (stereo in doubt; form 1)
Ki [1]: 475 nM
Ki [2]: 0.22 nM

COc1ccc(O[C@@H](CC(C)C)[C@@H]2CCNC2)c(C)n1
Ki [1]: > 890 nM
Ki [2]: 0.84 nM

CCN(CC)C(=O)C1(c2ccccc2)CC1CN (stereo not drawn)
Ki [3]: 27 nM

COc1ccc(O[C@H](CC(C)C)[C@@H]2CCNC2)c(C)n1
Ki [1]: > 890 nM
Ki [2]: 0.75 nM

COc1ccc(O[C@@H](CC(C)C)[C@H]2CCNC2)c(C)n1 [listing 1 of 2 here]
AUC(0-inf) [4]: 0.251 µM·h
half-life [5]: 0.84 h
IC50 (Cytochrome P450 2D6): > 10000 nM
clearance [6]: 120 mL/min/kg
inhibition at 10 µM (CYP2C9): < 30%
Activity (Rattus norvegicus [7]): Non-toxic
Cmax [8]: 503 nM
bioavailability [9]: 47%
half-life [10]: 4.6 h
concentration (Plasma): 146 nM
Tmax [11]: 1.3 h
Tmax [12]: 1.3 h
ED80 (Rattus norvegicus [13]): 6.8 mg/kg
Vd [14]: 7.6 L/kg
remaining at 0.5 h [15]: 92%
Ki [3]: 0.16 nM
AUC(0-inf) [16]: 8.09 µM·h
bioavailability [17]: 31%
AUC(0-inf) [18]: 0.6 µM·h
IC50 [2]: 1.9 nM
fraction unbound [19]: 0.43
inhibition at 10 µM (CYP3A4): < 30%
remaining at 0.5 h [20]: 28%
Vd [21]: 1.8 L/kg
IC50 (Cytochrome P450 1A2): > 10000 nM
remaining at 0.5 h [22]: 57%
inhibition at 10 µM (CYP2D6): < 30%
IC50 (Cytochrome P450 3A4): > 10000 nM
Kp [23]: 3
Cmax [24]: 65 nM
IC50 (Cytochrome P450 2C9): > 10000 nM
clearance [25]: 8.2 mL/min/kg
AUC(0-inf) [26]: 4.13 µM·h
concentration (Brain): 450 nM
ED80 (Rattus norvegicus [27]): 10.6 mg/kg

COc1ccc(O[C@H](CC(C)C)[C@H]2CCNC2)c(C)n1
Ki [1]: > 890 nM

COc1ccc(O[C@@H](CC(C)C)[C@H]2CCNC2)c(C)n1 [listing 2 of 2 here]
inhibition [28]: Active
Activity (Rattus norvegicus [29]): Dose-dependent effect
inhibition (Rattus norvegicus [30]): Dose-dependent effect

COc1ccc(O[C@@H](CC(C)C)[C@H]2CCNC2)c(C)n1 (stereo in doubt; form 2)
Ki [1]: 354 nM
Ki [2]: 0.21 nM
